Here are results for five compounds from patent publication US20130039956A1, “USE OF NITROCARBOXYLIC ACIDS FOR THE TREATMENT, DIAGNOSIS AND PROPHYLAXIS OF AGGRESSIVE HEALING PATTERNS” (priority 2010, published 2013).

For experiment [1], the system named is Tracheas of adult Wistar rats. Nature of the experiment: Tissue damage due to barotrauma ex vivo (tracheal rings). The format is cell-based. The settings on record: inhibitor 10 micromol, 6 hours before traumatization. The protocol:
In order to determine the effects of nitrated fatty acids on mechanical trauma to tracheal cells, an ex vivo model was established. Tracheas of adult Wistar rats sacrificed with thiopental given intraabdominally were carefully resected (harvested). Whole (intact) tracheas were cultured in DMEM 10 (Sigma) supplemented with antibiotic/antimycotic drugs for 48 hours at 37° C. Tracheas were cut into five pieces of equal size. One piece was immediately analyzed, two were bathed in 0.9% saline, one was bathed in a solution containing native fatty acid in SDS (1%), and one was bathed in a solution containing nitro fatty acid, respectively, for 15 minutes each. The inner diameters of the tracheal rings were measured. A non-compliant balloon catheter for use in vascular interventions was chosen, so that the nominal balloon diameter was 15-20% larger than that of the trachea. One tracheal ring pretreated with 0.9% saline was left untreated; the other prepared tracheal rings were mounted on the balloon catheter, which was inflated to a pressure of 4 atm thereafter. Balloons were kept inflated for 4 hours, while being positioned in the culture medium. Thereafter, the tracheal rings were further cultivated in separate vials for 24 hours. In a separate set of investigations, sense/antisense ODNs for HO-1 (Invitrogen) directed against the translation initiation codon in the HO-1 cDNA was used to inhibit hemoxydase-1 synthesis. The cells were transfected using the Superfect transfection reagent (Qiagen) before traumatization. In another set of experiments, the HO inhibitor SnPP IX (Porphyrin Products, London, UK) was added to the culture medium 6 hours before traumatization at a dose of 10 micromol.
For analysis, the rings were cut into small strips using a no touch technique. Viability was tested using a MTT assay and apoptosis using a TUNEL assay. Anti-HO-1 antibodies (StressGen, Tebu, Le-Perray-en-Yvelines, France) were measured by Western blot and immunohistochemistry.

Experiment [2] relates to human dermal fibroblasts. In words: Extra cellular matrix production (collagen-1) in response to TGF-β2 in dermal fibroblasts. The format is cell-based. Here is the method:
In order to determine whether PPRA gamma stimulation due to nitrated fatty acids plays a role in the inventive inhibition of an aggressive healing pattern to an irritating stimulus, human dermal fibroblasts were investigated. A dominant-negative PPAR gamma mutant (L466A) cell clone was generated by polymerase chain reaction-based site-directed mutagenesis. Presence of PPAR gamma or absence was investigated using a PPAR gamma antibody reaction which was determined using an enhanced chemiluminescence detection system. Furthermore, one cell series was incubated with a selective irreversible PPAR gamma ligand (GW9662, 1 μmol), which effectively blocks PPAR gamma receptors.
Sequential cultivation of human dermal fibroblasts was performed in EMEM containing 5 mM glucose supplemented with 10% FCS under standard cultivation conditions. Cells were allowed to grow to confluence in a 96-well plate. Wild-type fibroblasts and PPAR gamma deficient fibroblasts were investigated by a set-up of 2×10 sample sets comprising: (1) blank control; (2) stimulation control; (3) preincubation with the PPAR gamma antagonist GW9662 (Cayman Chemical); (4) preincubation with the PPAR agonist troglitazone (25 μmol). In 2×4 sample sets, native fatty acids were added to the medium to achieve a final concentration of 10 and 50 μmol, respectively; in another 2×4 sets the nitrated fatty acids were added to the medium in the same concentration, while 2×2 sets served as controls. In 10 of the sets, TGF-β2 was added to the culture medium at a concentration of 25 ng/ml. Cultivation was continued for 48 hours and then processed in order to analyze collagen-1 as measured by enhanced chemiluminescence detection of immuncomplexes.

The test system of experiment [3] is Human peripheral blood mononuclear cells (PBMCs). Nature of the experiment: Adhesion of serum proteins and monocyte activation induced by coated silicone. Also: key: 0: not superior to native FA (control); +: Superior to native FA; ++: superior to both; +++: outstanding effect. The format is cell-based. The following applies: dip-coated silicone, PBMCs 3 days; compared with native FA. Here is the method:
In order to determine the effect of coating implant materials with nitro fatty acids to reduce adsorption of adhesion molecules and monocyte activation, sterile silicone sheets were out in small pieces and coated with respective nirocarboxylic acid and the corresponding native fatty acids by dip coating. Uncoated silicone pieces served as controls. For each fatty acid two sets of silicone pieces were bathed in freshly drawn human serum for 1 hour at 37° C., and another two sets were bathed in saline solutions. One set of both coated and uncoated pieces was analyzed immediately for adhesion proteins and the other set was placed in 96-well plates after rinsing the silicone pieces. Human peripheral blood mononuclear cells (PBMCs), isolated from three healthy subjects, were added to each well. Wells were incubated for 3 days under standard conditions. Culture supernatants were assayed for IL-1beta, IL-6, IL-8, and chemoattractant protein 1 (MCP-1) levels at the start and end of experiments.
Before analyzing the silicone pieces for protein adsorption, they were bathed in saline for 5 minutes. Thereafter, one side was rinsed with saline as performed for both sides in the set used for culturing. There was marked adsorption of fibrinogen and […] C5b-9 on the uncoated silicone. […] No protein was found on the surface of the nitro fatty acid-coated sample that was rinsed, thus, indicating the weak adherence of serum proteins.

In experiment [4] the test system is Cardiomyocytes. Nature of the experiment: TGF-β1-inducible formation of extracellular matrix in cardiomyocytes under shear stress. Also: key: 0: not superior to native FA (control); +: Superior to native FA; ++: superior to both; +++: outstanding effect. The format is cell-based. The settings on record: 10-100 μmol, shear stress up to 100 dyn/cm^2; compared with native FA. Here is the method: Characterizing features of the fibrous remodelling in the heart are accentuated expression and deposition of extracellular matrix proteins (ECM). This has been attributed to increased mechanical forces via autocrine release of transforming growth factor-beta (TGF-beta). […] An established cell culture model was used to investigate the effect of shear stress on cardiomyocytes. Cardiomyocytes were cultured and transferred to a matrigel substrate. Plates with confluenced cells were placed into a shear force injury device (SFID). The SFID design is based on a cone-and-plate construction which is a well-defined rheological model in which a homogenously distributed laminar flow over the surface of the cells is generated by a rotating cone. The conical surface is positioned above a stationary flat plate and the fluid medium between these two surfaces is set in motion by rotating the cone to create a uniform level of fluid shear stress throughout the entire surface of the cells cultured on the coverslips.
A peak shear stress of 100 dyn/cm^2 could be applied without significant cell detachment enabling a maximum injury severity of 46%. Cells were exposed to FCS 1% without or with nitro-fatty acid, and the corresponding native fatty acid in a dosage range between 10 μmol and 100 μmol, 10 seconds before shear force application. Shear force peaks up to 100 dyn/cm^2 with a duration of 30 msec each with a repetition frequency of 60/minute were applied for 5, 10, 30 and 60 minutes. Thereafter the cell plates were washed and placed in FCS 1% for 24 hrs. The supernatant of the shear force investigation as well as that of the following culture phase was analysed. It could be shown that TGF-beta and ECM proteins (collagen I, fibronectin, laminin, elastin) increased after treatment in the control groups.

For experiment [5], the system named is Murine macrophage-like cells RAW 264.7 and murine L929 fibroblasts. Nature of the experiment: Monocyte/fibroblast co-culture on coated surgical suture material. Also: key: 0: not superior to native FA (control); +: Superior to native FA; ++: superior to both; +++: outstanding effect. The settings on record: dip-coated suture material, 24 and 48 hours; compared with native FA. The format is cell-based. The source says: In order to determine immunoreactions to foreign material and its consequence on fibrogenesis, co-cultures of fibroblasts and monocytes were used. Commercially available suture materials (propylene, polyamide, and silk) were dip-coated with corresponding native and nitrated fatty acids. Untreated suture material served as control. Treated and untreated suture materials were out in small pieces and placed in a 96-well plate.
Murine macrophage-like cells RAW 264.7 and murine L929 fibroblasts were cultured to a population density of 5×10(5) each. Cell suspensions were merged achieving a cellularity of approximately 2.5×10(5) cell/ml of each cell population which were added to the wells. The suture material samples were fully covered by the suspension. Wells were continuously and gently shaken throughout the incubation period.
Supernatants were collected for assays after 24 and 48 hours and analyzed for profibrotic cytokines IL-13, IL-4, and IL-6, TGF-β1, collagen I.

The subject of experiment [6] is human umbellical endothelial cells (HUVEC). In words: Adhesion, propagation and growth of endothelial cells on coated polystyrene films. Also: key: 0: not superior to native FA (control); +: Superior to native FA; ++: superior to both; +++: outstanding effect. The settings on record: days 3, 7, 14, compared with native FA. The format is cell-based. Here is the method:
Polystyrene scaffolds were prepared and pretreated in the same manner as performed in example 1 by using the same nitrocarboxylic acids as listed in table 1. The film samples were placed in a culture dish containing a gel matrix, in which human umbellical endothelial cells (HUVEC) had been allowed to grow to confluence. The culture medium consisted of 5% FCS, which was replaced every 5 days. Cultivation was performed according to standard conditions. Films were evaluated at days 3, 7, and 14 after careful extraction from the culture dishes, rinsing with saline solution, and staining with methylene blue. Using a reflected light microscope, the films were immediately examined to evaluate the following: Propagation of cells to the film center, cell confluidity, multilayer formation, and cell shape.

Experiment [7] deals with adult rats. Nature of the experiment: Fibrogenesis after traumatic and thermal tissue damage in dermal wound healing in vivo. Also noted: species or system rat. The settings on record: 100 micromol ethanolic solution on wound margins, 8 weeks, compared with native FA. From the text:
In order to determine the effects of nitrated fatty acids on fibrogenesis in response to traumatic and thermal tissue damage, an in vivo rat model was investigated. Paravertebral scalpel incision (two on each side) of approximately 1 cm in length and a depth of 1 mm were made in 12 anesthetized adult rats (150-200 g) of either sex after disinfection. Bleeding was stopped by manual compression. The entire length of the wound margins of one incision at each side were additionally cauterized using a 3-mm ball electrode connected to a DRE ASG-120 electrosurgical generator. Wound margins of one side were then covered with a sterile ethanolic 0.9% saline solution, or with a sterile ethanolic solution of the fatty acids (100 micromol), or with a sterile ethanolic solution of the nitrated fatty acids (100 micromol) using a sterile brush. A 1×10 mm cotton string that was bathed in the ethanolic solution containing 0.9% saline, native fatty acid or nitrated fatty acids was placed upon the incision site that had been closed by manual adaptation. The adaptation result and the cotton strings were fixed by an adhesive film. The animals were housed and fed according to institutional standards. The wound films were carefully removed after 2 weeks. Animals were euthanized after 8 weeks. The skin wounds were harvested, including the epidermis, dermis, and subcutaneous loose tissue with the surrounding normal tissue. The removed tissues were fixed in formalin and then embedded in paraffin. The cutting plane was vertical to the longitudinal axis of the former incisions. Slices (4-6 μm) were stained with H&E and Masson trichrome staining to evaluate the amount and density of collagen.

Experiment [8] relates to fibroblasts. Nature of the experiment: Mechanical alteration of fibroblasts (cyclic stretching of coated polypropylene meshes). The format is cell-based. The settings on record: day 21 to end of follow-up. The source says:
In order to simulate the effects of chronic shear forces on a healing wound, an in vitro model was established. A flat balloon was placed on the bottom of a Petri dish. A silicone sheet was placed above and sealed with the side of the Petri dish. Then a 3 mm agar layer was casted on top of the sheet. Commercially available polypropylene meshes for hernia repair (microporous mesh, a low-weight and macroporous mesh with absorbable polyglactin filaments, and a heavy-weight and microporous mesh) were placed on the agar plates and fixed at 4 points at the side of the Petri dish. This setting enabled stretching of the meshes by filling the balloons with air, which was performed at 10-second intervals using an automated pumping device. The model can be used to evaluate the effect of three-dimensional (3D) shear forces on cell growth during cell cultivation. Preincubated suspensions of fibroblasts (1.5×10(5) cells) in a culture medium (10% FCS) were added to the culture dishes and allowed to grow for 48 hours. Cyclic stretching was started at day 3. Histological analysis was performed from the central portions of the meshes at day 7, at day 21, and after 8 weeks. The scaffolds were detached from the culture plate and carefully rinsed. Then, they were cut into pieces, casted, and further processed for standard histology and immunohistology. Care was taken to achieve a cutting plane that was vertical to the surface plane of the meshes. Histological analysis evaluated the cellularity, the content of extra cellular matrix (ECM), and the magnitude of protein synthesis. Meshes were dip-coated with native and nitro fatty acids or left blank in the same manner as in example 1. The uncoated meshes served as controls.

Turning to `C=CC1=C(C)C2=Cc3c(C=C)c(C)c4[n]3[Sn]([Cl])([Cl])[n]3c(c(C)c(CCC(=O)O)c3=CC3=NC(=C4)C(C)=C3CCC(=O)O)=CC1=N2` [HO-1 inhibitor, reference compound], the HO-1 production result in experiment [1] was “reduced the HO-1 production to the lower detection limit or complete absence”.
Regarding `Cc1c(C)c2c(c(C)c1O)CCC(C)(COc1ccc(CC3SC(=O)NC3=O)cc1)O2` (stereo not shown) [PPAR agonist, troglitazone, reference compound], the “reduction of collagen-1 concentrations as compared to the control” value in experiment [2] (TGF-β2 stimulated, PPAR-positive cells, 25 μmol) is 35-40%.
Take `O=C(Nc1ccccc1)c1cc([N+](=O)[O-])ccc1Cl` [PPAR gamma antagonist, reference compound]: the “collagen-1 after TGF-β2 stimulation” value in experiment [2] (PPAR gamma-positive and -negative cells) is “marked increase of collagen-1”.
In the case of `CCCCCC=CCC=C(C/C=C\CCCCC(=O)O)[N+](=O)[O-]` [compound 20, 9-nitro-cis-6,9,12-octadecatrienoic acid], the “Relative effect on serum protein adhesion and monocyte activation” value in experiment [3] is “+”. In addition, the “Relative efficacy to suppress TGF-beta and ECM proteins in cardiomyocytes” value in experiment [4] is recorded as “+”. Besides, the “Relative effect on profibrotic cytokines and collagen I on suture material” value in experiment [5] was determined as 0. Besides, the “Relative effect on collagen-1 production in response to TGF-β2” value in experiment [2] (10 and 50 μmol, TGF-β2 25 ng/ml, 48 hours, compared with native FA) is “+”. In addition, in experiment [6], the “Relative differences: effect on adhesion, propagation and growth of endothelial cells” value is 0. Besides, the “Relative effect on fibrogenesis (scar formation) in dermal wound healing” value in experiment [7] is “+”.
As for nitrooleic acid, in experiment [8], the “density of actinmyosin filaments in fibroblasts” value is on record as “more actin-myosin fibers (intra-cellular green filaments) than fibroblasts within the coated meshes”.
